Drawing on patent publication US20240199546A1, “INHIBITORS OF SOLUTE CARRIER FAMILY 6A MEMBER 19 (SLC6A19) AND METHODS OF USE THEREOF” (Maze Therapeutics, Inc., priority 2022, published 2024), this text covers IC50 for 31 compounds.

SMILES strings stand for the structures. pIC50: −log10 of the molar value. Bounds are passed on as bounds.

The target in one experiment is T1, human SLC6A19 and TMEM27 (Homo sapiens, UniProt Q695T7).
T1 construct: expressed in transfected cells
T1 sequence (Q695T7 1-634): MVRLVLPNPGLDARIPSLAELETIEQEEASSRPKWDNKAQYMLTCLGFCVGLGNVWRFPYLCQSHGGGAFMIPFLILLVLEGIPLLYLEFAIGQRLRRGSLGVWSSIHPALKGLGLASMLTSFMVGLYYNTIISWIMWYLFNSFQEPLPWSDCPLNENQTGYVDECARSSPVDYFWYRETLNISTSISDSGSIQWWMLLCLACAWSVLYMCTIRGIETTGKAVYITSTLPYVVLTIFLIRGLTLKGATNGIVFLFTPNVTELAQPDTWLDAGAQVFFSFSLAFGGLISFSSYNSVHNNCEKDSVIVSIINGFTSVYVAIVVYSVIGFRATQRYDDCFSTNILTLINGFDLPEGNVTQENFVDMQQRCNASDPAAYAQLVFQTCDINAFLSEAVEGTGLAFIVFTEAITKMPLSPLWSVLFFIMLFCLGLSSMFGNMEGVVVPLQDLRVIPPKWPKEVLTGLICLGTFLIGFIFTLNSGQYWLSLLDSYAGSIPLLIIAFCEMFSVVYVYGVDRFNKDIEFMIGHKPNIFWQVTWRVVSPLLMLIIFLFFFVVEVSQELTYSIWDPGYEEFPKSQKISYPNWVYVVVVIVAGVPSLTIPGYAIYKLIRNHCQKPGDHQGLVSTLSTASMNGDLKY
T1 sequence (Q9HBJ8 15-222 partner): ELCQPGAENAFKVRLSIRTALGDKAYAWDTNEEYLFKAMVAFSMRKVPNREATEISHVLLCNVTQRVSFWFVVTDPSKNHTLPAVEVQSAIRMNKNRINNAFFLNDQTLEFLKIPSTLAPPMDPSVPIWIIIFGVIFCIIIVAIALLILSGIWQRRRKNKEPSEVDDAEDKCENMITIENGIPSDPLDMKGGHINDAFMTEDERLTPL
Description: Radiolabelled (3H) leucine uptake in CHO cells with doxycycline-inducible expression of human SLC6A19 and TMEM27 (Example B-1). The conditions noted are these: CHO cells with doxycycline-inducible expression of human SLC6A19 and TMEM27, read-out: SLC6A19_Radioligand Uptake Assay IC50. It is filed as cell-based. A digest of the protocol: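 CHO cells were induced with doxycycline for 18 h at 37 °C, washed in HBSS, then exposed to compounds for 1 h: 8-point, 3-fold dilutions in duplicate, 0.5% DMSO final. Uptake measured by scintillation counting after 2 h shaking. Activity normalized with positive control as 0% and DMSO as 100%.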
With `O=C(NCc1cc2ccc(OCc3ccon3)cc2[nH]1)N1CCC(F)C1` (stereo not shown) [Compound 200, 3-fluoro-N-((6-(isoxazol-3-ylmethoxy)-1H-indol-2-yl)methyl)pyrrolidine-1-carboxamide], the pIC50 was 6.12.

As to `CC1(C(=O)NCc2cc3cc(Cl)c(OCc4ccc5cc[nH]c5c4)cc3[nH]2)CC1` [Compound 350, N-((6-((1H-indol-6-yl)methoxy)-5-chloro-1H-indol-2-yl)methyl)-1-methylcyclopropane-1-carboxamide], the pIC50 was < 5.08.

For the compound `Cc1cc(COc2cc3[nH]c(CNC(=O)CC4(C)COC4)cc3cc2Cl)on1` [Compound 288, N-((5-chloro-6-((3-methylisoxazol-5-yl)methoxy)-1H-indol-2-yl)methyl)-2-(3-methyloxetan-3-yl)acetamide], the pIC50 is 5.49.

Take `Cc1cc(COc2cc3[nH]c(CNC(=O)CC4CCO4)cc3cc2Cl)on1` (stereo not shown) [Compound 245, N-((5-chloro-6-((3-methylisoxazol-5-yl)methoxy)-1H-indol-2-yl)methyl)-2-(oxetan-2-yl)acetamide]: the pIC50 is 5.92.

As to `CO[C@H]1C[C@H](Oc2cc3[nH]c(CNC(C)=O)cc3cc2Cl)C1` [Compound 462, N-((5-chloro-6-((trans)-3-methoxycyclobutoxy)-1H-indol-2-yl)methyl)acetamide], the pIC50 is 5.70.

In the case of `O=C(NCc1cc2cc(OC(F)(F)F)c(OCc3ccon3)cc2[nH]1)N1CCC1` [Compound 416, N-((6-(isoxazol-3-ylmethoxy)-5-(trifluoromethoxy)-1H-indol-2-yl)methyl)azetidine-1-carboxamide], the pIC50 is 6.42.

On to `O=C(NCc1cc2cc(Cl)c(OCc3ccon3)cc2[nH]1)C1CCCC1` [Compound 492, N-((5-chloro-6-(isoxazol-3-ylmethoxy)-1H-indol-2-yl)methyl)cyclopentanecarboxamide], for which the pIC50 was 6.44.

Take `Cc1cc(COc2cc3[nH]c(CNC(=O)[C@H]4CCN4)cc3cc2Cl)on1` [Compound 616, (R)-N-((5-chloro-6-((3-methylisoxazol-5-yl)methoxy)-1H-indol-2-yl)methyl)azetidine-2-carboxamide]: the pIC50 was 5.56.

`O=C(NCc1[nH]c2cc(OCc3cscn3)c(Cl)cc2c1Cl)N1CCC1` [Compound 474, N-((3,5-dichloro-6-(thiazol-4-ylmethoxy)-1H-indol-2-yl)methyl)azetidine-1-carboxamide]: the pIC50 was 6.26.

For `O=C(NCCO)NCc1cc2cc(Cl)c(OCc3cscn3)cc2[nH]1` [Compound 619, 1-((5-chloro-6-(thiazol-4-ylmethoxy)-1H-indol-2-yl)methyl)-3-(2-hydroxyethyl)urea], the pIC50 was < 5.07.

As to `Cc1cc(COc2cc3[nH]c(CNC(=O)[C@@H](C)O)cc3cc2Cl)on1` [Compound 256, (R)-N-((5-chloro-6-((3-methylisoxazol-5-yl)methoxy)-1H-indol-2-yl)methyl)-2-hydroxypropanamide], the pIC50 is 6.85.

Regarding `[2H]C([2H])([2H])C1(C(=O)NCc2cc3cc(Cl)c(OCc4cscn4)cc3[nH]2)CC1` [Compound 483, N-((5-chloro-6-(thiazol-4-ylmethoxy)-1H-indol-2-yl)methyl)-1-(methyl-d3)cyclopropane-1-carboxamide], the pIC50 was 6.77.

For `O=C(CN1CCC1)NCc1cc2cc(Cl)c(OCc3cscn3)cc2[nH]1` [Compound 512, 2-(azetidin-1-yl)-N-((5-chloro-6-(thiazol-4-ylmethoxy)-1H-indol-2-yl)methyl)acetamide], the pIC50 was 5.17.

With `COCC(=O)NCc1cc2cc(F)c(OCc3cscn3)cc2[nH]1` [Compound 265, N-((5-fluoro-6-(thiazol-4-ylmethoxy)-1H-indol-2-yl)methyl)-2-methoxyacetamide], the pIC50 is 6.92.

On to `Cc1nc(COc2cc3[nH]c(CNC(=O)C4(C)CC4)cc3cc2Cl)no1` [Compound 318, N-((5-chloro-6-((5-methyl-1,2,4-oxadiazol-3-yl)methoxy)-1H-indol-2-yl)methyl)-1-methylcyclopropane-1-carboxamide], for which the pIC50 is 6.65.

Take `CC1(C(=O)NCc2cc3cc(Cl)c(CCn4ccnn4)cc3[nH]2)CC1` [Compound 583, N-((6-(2-(1H-1,2,3-triazol-1-yl)ethyl)-5-chloro-1H-indol-2-yl)methyl)-1-methylcyclopropane-1-carboxamide]: the pIC50 is 5.82.

As for `Cc1cc(COc2cc3[nH]c(CNC(=O)[C@@H](C)O)cc3cc2F)on1` [Compound 283, (R)-N-((5-fluoro-6-((3-methylisoxazol-5-yl)methoxy)-1H-indol-2-yl)methyl)-2-hydroxypropanamide], the pIC50 is < 5.05.

Turning to `COCC(=O)NCc1cc2cc(F)c(OCc3cc(C)no3)cc2[nH]1` [Compound 263, N-((5-fluoro-6-((3-methylisoxazol-5-yl)methoxy)-1H-indol-2-yl)methyl)-2-methoxyacetamide], the pIC50 is 6.76.

In the case of `O=C(NCc1cc2cc(Cl)c(OCc3cscn3)cc2[nH]1)C1CC12CC2` (stereo not shown) [Compound 553, N-((5-chloro-6-(thiazol-4-ylmethoxy)-1H-indol-2-yl)methyl)spiro[2.2]pentane-1-carboxamide], the pIC50 was 6.47.

As for `C[C@@H]1CCCN1C(=O)NCc1cc2cc(F)c(OCc3cscn3)cc2[nH]1` [Compound 386, (R)-N-((5-fluoro-6-(thiazol-4-ylmethoxy)-1H-indol-2-yl)methyl)-2-methylpyrrolidine-1-carboxamide], the pIC50 is 6.76.

As to `Cc1cc(COc2cc3[nH]c(CNC(=O)[C@@H]4COCCO4)cc3cc2Cl)on1` [Compound 303, (S)-N-((5-chloro-6-((3-methylisoxazol-5-yl)methoxy)-1H-indol-2-yl)methyl)-1,4-dioxane-2-carboxamide], the pIC50 is 6.09.

As for `CC(=O)NCc1cc2cc(F)c(OCc3cocn3)cc2[nH]1` [Compound 224, N-((5-fluoro-6-(oxazol-4-ylmethoxy)-1H-indol-2-yl)methyl)acetamide], the pIC50 was 6.26.

Regarding `Cc1cc(COc2cc3[nH]c(CNC(=O)C(F)F)cc3cc2Cl)on1` [Compound 563, N-((5-chloro-6-((3-methylisoxazol-5-yl)methoxy)-1H-indol-2-yl)methyl)-2,2-difluoroacetamide], the pIC50 was 7.09.

Regarding `C[C@@H](O)C(=O)NCc1cc2cc(F)c(OCc3cscn3)cc2[nH]1` [Compound 282, (R)-N-((5-fluoro-6-(thiazol-4-ylmethoxy)-1H-indol-2-yl)methyl)-2-hydroxypropanamide], the pIC50 is 5.57.

Turning to `CC1(C(=O)NCc2cc3cc(Cl)c(OCc4cccnn4)cc3[nH]2)CC1` [Compound 334, N-((5-chloro-6-(pyridazin-3-ylmethoxy)-1H-indol-2-yl)methyl)-1-methylcyclopropane-1-carboxamide], the pIC50 is 6.28.

For `CC(=O)NCc1cc2c(F)cc(OCc3ccon3)cc2[nH]1` [Compound 453, N-((4-fluoro-6-(isoxazol-3-ylmethoxy)-1H-indol-2-yl)methyl)acetamide], the pIC50 is 6.07.

Consider `Cc1cc(COc2cc3[nH]c(CNC(=O)[C@@H]4CCN4C)cc3cc2Cl)on1` [Compound 576, (S)-N-((5-chloro-6-((3-methylisoxazol-5-yl)methoxy)-1H-indol-2-yl)methyl)-1-methylazetidine-2-carboxamide], for which the pIC50 was 6.08.

For the compound `O=C(NCc1cc2cc(OC(F)(F)F)c(CCc3cscn3)cc2[nH]1)N1CCC1` [Compound 596, N-((6-(2-(thiazol-4-yl)ethyl)-5-(trifluoromethoxy)-1H-indol-2-yl)methyl)azetidine-1-carboxamide], the pIC50 is 6.47.

As to `CC[C@@H](O)C(=O)NCc1cc2cc(Cl)c(OCc3cc(C)no3)cc2[nH]1` [Compound 241, (R)-N-((5-chloro-6-((3-methylisoxazol-5-yl)methoxy)-1H-indol-2-yl)methyl)-2-hydroxybutanamide], the pIC50 was 5.99.

On to `CCc1cc2cc(CNC(=O)C3(C)CC3)[nH]c2cc1OCc1cscn1` [Compound 202, N-((5-ethyl-6-(thiazol-4-ylmethoxy)-1H-indol-2-yl)methyl)-1-methylcyclopropane-1-carboxamide], for which the pIC50 is 5.81.

Still in this experiment, the particulars now being: SLC6A19_Radioligand Uptake Assay IC50, CHO cells with doxycycline-inducible expression of human SLC6A19 and TMEM27.
In turn, `Cc1cc(COc2cc3[nH]c(CNC(N)=O)cc3cc2Cl)on1` [Compound 637, 1-((5-chloro-6-((3-methylisoxazol-5-yl)methoxy)-1H-indol-2-yl)methyl)urea] gave a pIC50 of 6.42.
